BindingDB's records for doi:10.1021/acs.biochem.7b00078 (The University of Queensland, 2017)
One block for each molecule: values may come before it. Peptide text beside a SMILES is read from it. * marks the point of attachment. FITC = O=C1OC2(c3ccc(O)cc3Oc3cc(O)ccc32)c2ccc(NC(=S)*)cc21; Biotin = O=C1N[C@H]2[C@H](CS[C@H]2CCCCC(=O)*)N1

Tests used:
[1] = biological target: T1, Na(+)/H(+) exchange regulatory cofactor NHE-RF1 [133-300] (Homo sapiens, UniProt O14745); experiment: Fluorescent Polarization Competition Assay; conditions: 23 °C
T1 construct: 133-300
T1 sequence (O14745 whole entry): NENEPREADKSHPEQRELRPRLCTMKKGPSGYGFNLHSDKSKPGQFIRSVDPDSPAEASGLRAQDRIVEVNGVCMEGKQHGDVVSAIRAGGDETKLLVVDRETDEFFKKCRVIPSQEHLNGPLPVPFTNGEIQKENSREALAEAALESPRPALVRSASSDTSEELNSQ
Protocol: (§1) Competition assays were performed in FP buffer (DTT was avoided for Cys-PTHRct-9) containing fixed concentrations of both the fluorescently labeled peptide andprotein following the protocol described by Madden and coworkers. [Cushing et al., Biochemistry, 47:10084-10098] This mixture was equilibrated for 20 min in the dark at room temperature. The unlabeled competitor peptide was dissolved and serially diluted in storage buffer supplemented with 5% DMSO (Sigma). Each serial dilution was aliquoted at 1/10 final volume, to which was added 9/10 volume of the protein/peptide mixture. All FP assays were performed in a 96-well format. Polarized fluorescence intensities were measured at 23 °C with a PerkinElmer Wallac Victor3 multilabel counter using excitation and emission wavelengths of 485 and 535 nm, respectively, for the FITC-labeled peptide.

[2] = biological target: T2, Na(+)/H(+) exchange regulatory cofactor NHE-RF1 [1-140] (Homo sapiens, UniProt O14745); experiment: Surface Plasmon Resonance (SPR); conditions: pH 7.4; 15 °C
T2 construct: 1-140
T2 sequence (O14745 whole entry): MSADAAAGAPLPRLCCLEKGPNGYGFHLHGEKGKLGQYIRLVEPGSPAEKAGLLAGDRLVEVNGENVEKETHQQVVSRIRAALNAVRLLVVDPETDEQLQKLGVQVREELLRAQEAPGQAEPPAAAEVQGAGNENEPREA
Protocol: (§2) SPR measurements were performed with a Biacore X100 instrument (GE Healthcare Life Sciences, Piscataway, NJ) at 15.0 °C. The biotinylated PTHRct-22 ligand was immobilized on an SA streptavidin sensor chip (GE Healthcare Life Sciences) usingthe manufacturer's protocol until the desired response target was reached. PDZ1 or PDZ2 analyte, dissolved in 10 mM HEPES buffer (pH 7.4), 150 mM NaCl, 3 mM EDTA, and 0.005% surfactant polysorbate 20, was injected on the PTHRct-coated sensor surface at increasing concentrations from 10 nM to 100 μM. At the end of each ligand injection−dissociation cycle, the sensor chip was regenerated with 4.0 M MgCl2, 50 mM triethylamine (pH 9.15), and HBS-EP buffer.

[3] = biological target: T1, Na(+)/H(+) exchange regulatory cofactor NHE-RF1 [133-300]; experiment: Surface Plasmon Resonance (SPR); conditions: pH 7.4; 15 °C
Protocol: as §2

[4] = biological target: T2, Na(+)/H(+) exchange regulatory cofactor NHE-RF1 [1-140]; experiment: Fluorescent Polarization Competition Assay; conditions: 23 °C
Protocol: as §1

[5] = biological target: T2, Na(+)/H(+) exchange regulatory cofactor NHE-RF1 [1-140]; experiment: Isothermal Titration Calorimetry (ITC); conditions: pH 8; 25 °C
Protocol: (§3) ITC measurements were conducted on a Microcal iTC200 (Malvern Instruments) in buffer consisting of 25 mM Tris (pH 8.0) and 100 mM NaCl. Proteins were exchanged into ITC buffer by gel filtration using a Superdex200 column. Wild-type modified synthetic peptides were purchased from Genscript and are described in Results. One millimolar PTHR peptides (wild-type and mutant variants) were titrated into 100 μM individual proteins, PDZ1 or PDZ2, at 25 °C.

[6] = biological target: T1, Na(+)/H(+) exchange regulatory cofactor NHE-RF1 [133-300]; experiment: Isothermal Titration Calorimetry (ITC); conditions: pH 8; 25 °C
Protocol: as §3

Ki ([1]; pH 7.4): 7 µM
Kd [2]: 16 µM
Kd [3]: 11.5 µM
Molecule: CSCC[C@H](NC(=O)[C@@H](NC(=O)[C@@H](NC(=O)[C@H](CCC(=O)O)NC(=O)[C@H](Cc1c[nH]c2ccccc12)NC(=O)[C@H](CCC(=O)O)NC(=O)[C@H](CCC(=O)O)NC(=O)[C@H](CCC(N)=O)NC(=O)[C@H](CC(C)C)NC(=O)[C@H](CC(C)C)NC(=O)[C@H](C)NC(=O)[C@@H]1CCCN1C(=O)[C@@H]1CCCN1C(=O)[C@H](CCCNC(=N)N)NC(=O)[C@H](CCC(=O)O)NC(=O)[C@@H]1CCCN1C(=O)[C@H](CS)NC(=O)[C@H](CO)NC(=O)[C@H](C)NC(=O)[C@H](CCC(=O)O)NC(=O)[C@H](CCC(=O)O)NC(=O)[C@H](CC(=O)O)NC(=O)CCCC[C@@H]1SC[C@@H]2NC(=O)N[C@@H]21)[C@@H](C)O)C(C)C)C(=O)O (Biotin-DEEASCPERPPALLQEEWETVM-OH)

Kd ([4]; pH 7): 1 µM
Kd ([1]; pH 7): 0.6 µM
Molecule: CSCC[C@H](NC(=O)[C@@H](NC(=O)[C@@H](NC(=O)[C@H](CCC(=O)O)NC(=O)[C@H](Cc1c[nH]c2ccccc12)NC(=O)[C@H](CCC(=O)O)NC(=O)[C@H](CCC(=O)O)NC(=O)[C@H](CCC(N)=O)NC(=O)[C@H](CC(C)C)NC(=S)Nc1ccc2c(c1)C(=O)OC21c2ccc(O)cc2Oc2cc(O)ccc21)[C@@H](C)O)C(C)C)C(=O)O [FITC-LQEEWETVM] ({FITC}-LQEEWETVM-OH)

Ki ([4]; pH 7.4): 1.4 µM
Molecule: H-LQEEWETVM-OH [LQEEWETVM]

Kd [5]: 11.7 µM
Kd [6]: 9.7 µM
Molecule: H-QEEWETVM-OH [QEEWETVM]
